Data published in patent US6783558B2, “Hair coloring method and composition” (Kao Corporation, priority 2001, dated 2004).

Legend:
[1] = Dyeing of undamaged white goat tress with general composition, Examples 7-15; conditions: 0.02 g dyestuff in 10 g general composition (Table 6), 20 mins at 50° C
Method: the following general composition was prepared for each of pyrazolotriazole direct dyes DS-3, DS-4, DS-6, DS-7 and DS-12 to DS-16. Each composition was applied to one undamaged white goat tress for 20 mins at 50° C. (1 g of tress was covered by 1.5 to 2 g of composition). After 20 mins the tresses were rinsed, shampoo washed and then dried before the colour was assessed.

[2] = Compatibility with hydrogen peroxide, Examples 18-21; set-up: species or system human; conditions: for Delta a (change in red colour): 0.02 g dyestuff in 10 g, undamaged human blond hair, 20 mins at 50° C; for stability to alkaline peroxide: composition with ammonia and hydrogen peroxide
Method: The following general compositions in Table 10 were prepared for each of pyrazolotriazole direct dyes DS-4 and DS-6.
Each composition was applied to one undamaged human blond hair for 20 mins at 50° C. After 20 mins the tresses were rinsed, shampoo washed and then dried before the colour was assessed.

[3] = Measurement of pKa value by spectrophotometric titration; assay type: physicochemical; conditions: DMF/water (1/1) solution, 2×10^−5 mol/l, titrated from pH 2 with NaOH, visible ultra-violet absorption spectrum, read-out: pKa value determined
Method: The dissociative dye represents the dye that can release a proton and be anionic above a certain pH value. The pKa value can be determined by the following method: The sample is dissolved in a solution of a DMF/water (1/1) volume ratio to a final concentration of 2×10^−5 mol/l. After the resulting solution is adjusted to pH 2, using 1.0 mol/l hydrochloric acid, the solution is titrated with aqueous 1.0 mol/l sodium hydroxide solution. Recording the change of the visible ultra-violet absorption spectrum, the inflection point is determined by regression analysis.
pKa values of the dyestuffs DS-3 to DS-6, DS-7 and DS10 were determined by the following method: The dye was dissolved in a solution of a DMF/water (1/1) volume ratio to a final concentration of 2×10^−5 mol/l. After the resulting solution was adjusted to pH 2, using 1.0 mol/l hydrochloric acid, the solution was titrated with aqueous 1.0 mol/l sodium hydroxide solution. Recording the change of the visible ultra-violet absorption spectrum, the inflection point was determined by regression analysis.

| Compound | Colouring Result [1] | Delta E [1] | L [1] | a [1] | b [1] | Delta a (change in red colour) ([2]; H2O2 3 wt %) | Delta a (change in red colour) ([2]; H2O2 None) | stability to alkaline peroxide [2] | pKa [3] |
| --- | --- | --- | --- | --- | --- | --- | --- | --- | --- |
| Cc1nc2n(n1)N=C(C(C)(C)C)/C2=N/c1cc(Cl)c(O)c(Cl)c1 [DS-4] | Bright, intense magenta | 75 | 38 | 60 | 16 | 39 | 27 | stable to alkaline peroxide | 3.88 |
| CC(C)(C)C1=Nn2nc(-c3ccc(NS(C)(=O)=O)cc3)nc2/C1=N\c1cc(Cl)c(O)c(Cl)c1 [DS-16] | Bright pink | 52 | 55 | 41 | −3 |  |  |  |  |
| CC1=Nn2nc(C)nc2/C1=N\c1cc(Cl)c(O)c(Cl)c1 [DS-3] | Bright, intense magenta | 81 | 30 | 54 | −12 |  |  |  | 3.78 |
| Cc1nnc2n1N=C(C(C)(C)C)/C2=N/c1cc(Cl)c(O)c(Cl)c1 [DS-6] | Bright pink | 55 | 57 | 42 | −7 | 30 | 15 | stable to alkaline peroxide |  |
| CC(C)c1nc2n(n1)N=C(C(C)(C)C)/C2=N/c1cc(Cl)c(O)c(Cl)c1 [DS-7] | Pink | 60 | 50 | 50 | −8 |  |  |  | 3.92 |
| CC(C)c1nc2n(n1)N=C(c1ccccc1Cl)/C2=N/c1cc(Cl)c(O)c(Cl)c1 [DS-15] | Violet | 55 | 51 | 33 | −17 |  |  |  |  |
| CC1=Nn2c(C)nnc2/C1=N\c1cc(Cl)c(O)c(Cl)c1 [DS-5] |  |  |  |  |  |  |  |  | 4.34 |
| CSc1nnc2n1N=C(c1ccccc1)/C2=N/c1cc(Cl)c(O)c(Cl)c1 [DS-12] | Violet | 59 | 48 | 29 | −26 |  |  |  |  |
| CC1=Nn2nc(C(C)CN)nc2/C1=N\c1cc(Cl)c(O)c(Cl)c1 (stereo not shown) [DS-10] |  |  |  |  |  |  |  |  | 3.38 |
